Read-outs that look alike come from different tables or passages of the source.
Assays:
[1] = molecular target: T1, protein kinases of the Z-LYTE panel (Homo sapiens, UniProt Q06418); test: SelectScreen Z-LYTE kinase activity assay (SI Table 6); assay type: biochemical
T1 sequence (Q06418 41-890): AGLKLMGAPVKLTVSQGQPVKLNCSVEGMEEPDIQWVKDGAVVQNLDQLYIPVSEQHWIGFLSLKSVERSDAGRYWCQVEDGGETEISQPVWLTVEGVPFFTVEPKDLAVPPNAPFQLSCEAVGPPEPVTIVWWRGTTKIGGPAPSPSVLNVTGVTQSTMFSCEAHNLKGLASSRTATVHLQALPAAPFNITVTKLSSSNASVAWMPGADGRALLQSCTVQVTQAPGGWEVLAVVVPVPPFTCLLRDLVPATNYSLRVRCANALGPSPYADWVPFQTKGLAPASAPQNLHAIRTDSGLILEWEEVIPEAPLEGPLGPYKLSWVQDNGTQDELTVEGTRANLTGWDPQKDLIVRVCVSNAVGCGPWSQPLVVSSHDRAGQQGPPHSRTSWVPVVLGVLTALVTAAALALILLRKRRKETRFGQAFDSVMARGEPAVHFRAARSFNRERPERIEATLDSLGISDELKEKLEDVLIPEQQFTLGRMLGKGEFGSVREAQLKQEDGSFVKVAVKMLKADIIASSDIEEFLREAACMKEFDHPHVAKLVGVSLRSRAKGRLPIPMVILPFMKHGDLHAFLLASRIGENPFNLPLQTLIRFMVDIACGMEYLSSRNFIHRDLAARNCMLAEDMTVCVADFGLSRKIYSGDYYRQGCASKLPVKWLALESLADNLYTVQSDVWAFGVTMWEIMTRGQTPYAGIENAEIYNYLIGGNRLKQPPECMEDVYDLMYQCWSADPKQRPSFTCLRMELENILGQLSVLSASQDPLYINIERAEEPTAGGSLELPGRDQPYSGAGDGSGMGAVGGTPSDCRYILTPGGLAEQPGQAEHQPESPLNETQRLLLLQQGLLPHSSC
Description: (§1) 133 protein kinases and 7 lipid kinases were counterscreened, with 1938 used at 1 μM, using the Adapta, Lantha and Z-LYTE assays (SelectScreen Kinase Profiling Service; Thermofisher – experimental details of these assays can be found here: https://www.thermofisher.com/uk/en/home/industrial/pharma-biopharma/drug-discovery-development/target-and-lead-identification-and-validation/kinasebiology/kinase-activity-assays.html. The tree represention in KinMap[59] generated courtesy of Cell Signaling Technology, Inc. (www.cellsignal.com). mTORC1 (mTOR/RAPTOR/LST8) protein complex and ATM kinase and substrates were produced as previously described[57],[60]. Screening of 1938 was conducted using SuperSep Phos-Tag 50 μmol/l 100 x 100 x 6.6 mm 17-well (192-18001/199-18011) gels. For ATM assays, 100 nM ATM was incubated for 30 min at 30°C with 5 μM GST-p53 and 1 mM ATP, in the absence or presence of 200 μM 1938 in ATM Kinase Buffer (50 mM HEPES pH 7.5, 100 mM NaCl, 10% glycerol, 2 mM […], 5 mM MgCl2). As a positive control for ATM activation, the same reaction was carried out with 100 nM ATM/5 μM GST-p53/1 mM ATP in the presence of 100 nM Mre11-Rad50-Nbs1 (MRN) complex, a known activator of ATM[61]. For mTORC1 assays, 50 nM mTORC1 complex (mTOR/LST8/RAPTOR) was incubated for 3 h at 30°C with 15 μM 4E-BP1, 10 mM MgCl2 and 250 μM ATP, in the absence or presence of 200 μM 1938. As a ‘positive’ control, a higher concentration (150 nM) of mTORC1 complex (mTOR/LST8/RAPTOR) was incubated for 3 h at 30°C with 15 μM 4E-BP1, 10 mM MgCl2 and 250 μM ATP. Kinase reactions were quenched by addition of SDS-PAGE Loading Buffer (as per manufacturer’s instructions) and freezing at -20°C before being run on the Phos-tag gels at 150 V for 90 min. Gels were then stained using InstantBlue™ Coomassie, and quantified using BioRad Image Lab Software. Kinase assays were carried out in triplicate.

[2] = molecular target: T2, protein kinases of the Z-LYTE panel (Homo sapiens, UniProt O00141); test: as above; assay type: biochemical
T2 sequence (O00141 1-431): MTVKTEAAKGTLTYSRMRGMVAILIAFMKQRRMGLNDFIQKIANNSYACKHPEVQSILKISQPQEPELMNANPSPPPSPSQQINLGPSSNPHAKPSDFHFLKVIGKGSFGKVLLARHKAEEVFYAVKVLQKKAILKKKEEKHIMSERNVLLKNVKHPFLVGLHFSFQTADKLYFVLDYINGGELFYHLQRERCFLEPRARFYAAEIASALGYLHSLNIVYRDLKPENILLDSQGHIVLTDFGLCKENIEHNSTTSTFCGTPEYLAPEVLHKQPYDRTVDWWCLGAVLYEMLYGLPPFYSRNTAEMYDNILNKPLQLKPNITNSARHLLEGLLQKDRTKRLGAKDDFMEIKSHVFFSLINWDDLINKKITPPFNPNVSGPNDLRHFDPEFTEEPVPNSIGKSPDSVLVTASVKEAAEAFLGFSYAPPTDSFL
Description: as §1

## CCN1CCN(c2ccc(Nc3cc(Nc4cccc5c4N(C(C)=O)CC5)ccn3)cc2)CC1 [Compound 1938]
[1]; read-out: % Inhibition Point 1
  inhibition at 1 µM: 8%
[1]; read-out: % Inhibition Point 2
  inhibition at 1 µM: 7.56%
[1]; read-out: % Inhibition mean
  inhibition at 1 µM: 7.59%
[2]; read-out: % Inhibition Point 1
  inhibition at 1 µM: 4.46%
[2]; read-out: % Inhibition Point 2
  inhibition at 1 µM: 3.55%
[2]; read-out: % Inhibition mean
  inhibition at 1 µM: 4%

— PMC7614683, “A small molecule PI3Kα activator for cardioprotection and neuroregeneration” (Nature, 2023)
